Reference: patent US5041579A, “Platinum complexes and uses therewith” (Ajinomoto Co., Inc., priority 1987, dated 1991)

What was measured:
Colon 38 cells [1] = experiment: Anti-tumor activity testing 4: tumor-growth inhibition of subcutaneous Colon 38, intravenous injection; format: in vivo, Female BDF mice; settings: 21 days after transplantation
Text: Female BDF mice of 5-week age were used as test animals (eight head for each group).

L1210 cells [2] = experiment: Growth inhibition of L1210 cells ([3H]-thymidine uptake); format: cell-based, mouse; settings: 46 h incubation plus 2 h with [3H]-thymidine, 37° C.
Method: (§1) L1210 cells and cisplatin-resistant L1210 cells under subcultivation were incubated in RPMI1640 medium containing 10% fetal bovine serum at 37° C. for 46 hours in an atmosphere containing 5% carbon dioxide. [^3 H]-thymidine was added to the grown cells, and incubation was continued for an additional two hours. The growth inhibition rate of a drug was calculated from the amounts of [^3 H]-thymidine taken into the cells in the presence and absence of that drug, and the 50% growth inhibition concentration (IC50) was determined from the graph of inhibition rate plotted against drug concentration. The degree of drug resistance was calculated from the ratio of IC50 for cisplatin-resistant L1210 cells to that for L1210 cells.

[3] = tested on: cisplatin-resistant L1210 cells; experiment: Growth inhibition of cisplatin-resistant L1210 cells ([3H]-thymidine uptake); format: cell-based, mouse; settings: for IC50: 46 h incubation plus 2 h with [3H]-thymidine, 37° C.; for Degree of Resistance: ratio of IC50 for cisplatin-resistant L1210 cells to that for L1210 cells, 2880 min
Method: as §1

[4] = cited from earlier work
Sarcoma-180 cells = experiment: Anti-tumor activity testing 1: life-prolonging rate in mice transplanted intraperitoneally with Sarcoma-180 cells; format: in vivo, Female ICR/CRJ mice; settings: day after transplantation
Method: Female ICR/CRJ mice of 5-week age were used as test animals (five head for each group).
(§2) Sarcoma-180 cells (1×10^6) were intraperitoneally transplanted to each of the test animals, each of the Pt(II) complexes listed in Table 1 was then injected intraperitoneally on the next day, and the life-prolonging rate was measured for each test group. Physiologically saline was used as the solvent of injections.

L1210 cells [5] = experiment: Anti-tumor activity testing 2: life-prolonging rate in mice transplanted intraperitoneally with L1210 cells; format: in vivo, Female BDF1 mice; settings: days 1, 5 and 9
Method: Female BDF1 mice of 5-week age were used as test animals (five head for each group).
as §2, with “L1210” for “Sarcoma-180”, “(1×10^5)” for “(1×10^6)”, “2” for “1”, “one” for “on the next”, “day, five days and nine days after transplantation (a total of three times),” for “day,”

Colon 38 cells [6] = experiment: Anti-tumor activity testing 3: tumor-growth inhibition of subcutaneous Colon 38, intraperitoneal injection; format: in vivo, female BDF mice; settings: days 1, 8 and 15, 21 days after transplantation
Method: female BDF mice of 5-week age were used as test animals (five head for each group).
Colon 38 cells (40 mg) were subcutaneously transplanted to each of the test animals at the haunch, each of the Pt(II) complexes listed in Table 3 was then injected intraperitoneally 1 day, 8 days and 15 days after transplantation (a total of three times), and the tumor-growth inhibition rate was measured for each test group 21 days after transplantation.

[7] = Solubility in physiological saline; format: physicochemical

SMILES	Tumor-growth Inhibition Rate (Colon 38 cells [1]; 2 mg/kg × 6, i.v.)	Tumor-growth Inhibition Rate (Colon 38 cells [1]; 4 mg/kg × 6, i.v.)	Tumor-growth Inhibition Rate (Colon 38 cells [1]; 8 mg/kg × 6, i.v.)	Tumor-growth Inhibition Rate (Colon 38 cells [1]; 16 mg/kg × 6, i.v.)	IC50 (L1210 cells [2])	IC50 [3]	Degree of Resistance [3]	Life-prolonging Rate (Sarcoma-180 cells; 4.0 mg/Kg × 1, i.p.)	Life-prolonging Rate (Sarcoma-180 cells; 8.0 mg/Kg × 1, i.p.)	Life-prolonging Rate (Sarcoma-180 cells; 16.0 mg/Kg × 1, i.p.)	Life-prolonging Rate (L1210 cells [5]; 7.5 μmol/Kg × 3, i.p.)	Life-prolonging Rate (L1210 cells [5]; 15.0 μmol/Kg × 3, i.p.)	Life-prolonging Rate (L1210 cells [5]; 30.0 μmol/Kg × 3, i.p.)	Tumor-growth Inhibition Rate (Colon 38 cells [6]; 20.0 μmol/Kg × 3, i.p.)	Tumor-growth Inhibition Rate (Colon 38 cells [6]; 30.0 μmol/Kg × 3, i.p.)	Tumor-growth Inhibition Rate (Colon 38 cells [6]; 45.0 μmol/Kg × 3, i.p.)	further results
NC1CCCC(O)C1N.O=S1(=O)[O][Pt][O]1 (single isomer, unassigned; (+)) [Compound No. 8, (+)-Cis-sulfato-(1/2,3)-2,3-diaminocyclohexanol-platinum(II)]	34%	35%	61%	91%													
NC1CCCC(O)C1N.O=S1(=O)[O][Pt][O]1 (single isomer, unassigned; (-)) [Compound No. 9]	40%	88%	88%	toxic													
N.N.[Cl][Pt][Cl] [Cisplatin, cis-dichlorodiamineplatinum(II), reference compound]	58%	84%	toxic		1 µM	10.5 µM	10.5										Tumor-growth Inhibition Rate (Colon 38 cells [1]; 1 mg/kg × 6, i.v.): 19%; anti-tumor activity (in words) ([4]; Nature, 222, 385 (1969)): high anti-tumor activity; side effects (in words) ([4]; clinical use): severe side effects, such as toxicity to the kidney, nausea, emesis and bradyacusia
O=C1[O][Pt]2([NH]C3CCCC(O)C3[NH]2)[O]C1=O (stereo not drawn) [Compound No. 1, Cis-oxalato-(1/2,3)-2,3-diamino-1-cyclohexanolplatinum(II)]					3.5 µM	6.6 µM	1.9	189%	218%	266%	115%	115%	132%	24%	16%	45%	
NC1CCCC(O)C1N.O=S(=O)([O-])[O-].[Pt+2] (stereo not drawn) [Compound No. 2, Cis-sulfato-(1/2,3)-2,3-diamino-1-cyclohexanolplatinum(II)]	22%	41%	90%	toxic	1.7 µM	3.2 µM	1.9	295%	532%	534%	136%	134%	151%	47%	78%	97%	Solubility [7]: > 20.0 mg/mL
O=C1C[O][Pt]2([NH]C3CCCC(O)C3[NH]2)[O]1 (stereo not drawn) [Compound No. 3, Cis-glycolato-(1/2,3)-2,3-diamino-1-cyclohexanolplatinum(II)]					1.3 µM	2.5 µM	1.9	212%	182%	252%	116%	122%	147%	70%	72%	96%	
NC1CCCC(N)C1.O=C1[O][Pt][O]C1=O (stereo not drawn) [Compound No. 4, Cis-oxalato-1,3-diaminocyclohexaneplatinum(II)]					2.4 µM	5 µM	2.1	248%	258%	364%	127%	222%	245%	54%	77%	88%	
O=S1(=O)[O][Pt]2([NH]C3CCCC(C3)[NH]2)[O]1 [Compound No. 5, Cis-sulfato-1,3-diaminocyclohexaneplatinum(II)]					3.1 µM	7.9 µM	2.5	202%	187%	236%	121%	189%	155%	36%	56%	56%	
NC1CCCC(N)C1.O=C1[O][Pt][O]C(=O)C12CCC2 [Compound No. 6, Cis-cyclobutane-1,1-dicarboxylato-1,3-diaminocyclohexaneplatinum(II)]										126%			98%				Life-prolonging Rate (Sarcoma-180 cells; 32.0 mg/Kg × 1, i.p.): 106%; Life-prolonging Rate (L1210 cells [5]; 60.0 μmol/Kg × 3, i.p.): 104%
O=S1(=O)[O][Pt]2([NH]C3CC([NH]2)C(O)C(O)C3O)[O]1 (stereo not drawn) [Compound No. 7, Cis-sulfato-2-deoxystreptamineplatinum(II)]									126%	120%		102%	109%				Life-prolonging Rate (Sarcoma-180 cells; 32.0 mg/Kg × 1, i.p.): 241%; Life-prolonging Rate (L1210 cells [5]; 60.0 μmol/Kg × 3, i.p.): 119%
